Entries after “also recorded” stand apart in the source; their conditions may differ.
What was measured:
[1] = biological target: T1, FAAH (Mus musculus, UniProt O08914); test: sADPL in vivo target engagement in mPBMCs after oral gavage, off-target FAAH; conditions: mice, 3 and 80 mg/kg
T1 construct: Then the mPBMCs were acquired from the mouse blood and subjected to family wide probe treatment; from tissue; host or cells: mouse blood PBMCs (mPBMCs)
T1 sequence (O08914 1-579): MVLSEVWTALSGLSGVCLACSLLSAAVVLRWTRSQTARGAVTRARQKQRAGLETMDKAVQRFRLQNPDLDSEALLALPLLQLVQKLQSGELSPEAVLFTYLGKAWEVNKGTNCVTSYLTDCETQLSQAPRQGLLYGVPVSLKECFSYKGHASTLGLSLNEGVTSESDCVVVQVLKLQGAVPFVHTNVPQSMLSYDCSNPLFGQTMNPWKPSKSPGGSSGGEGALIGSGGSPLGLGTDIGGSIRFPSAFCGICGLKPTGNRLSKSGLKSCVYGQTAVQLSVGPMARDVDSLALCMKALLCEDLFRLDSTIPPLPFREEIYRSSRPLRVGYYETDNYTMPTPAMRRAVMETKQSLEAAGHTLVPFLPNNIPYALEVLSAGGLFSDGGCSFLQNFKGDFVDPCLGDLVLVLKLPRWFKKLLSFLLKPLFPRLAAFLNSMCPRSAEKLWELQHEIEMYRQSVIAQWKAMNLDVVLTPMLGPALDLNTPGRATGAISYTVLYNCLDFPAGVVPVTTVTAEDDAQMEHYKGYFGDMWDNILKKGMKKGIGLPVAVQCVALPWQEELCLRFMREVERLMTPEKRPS
Excerpt: FIG. 25. In vivo Target Engagement. The mice were administrated with vehicle (PEG300) or NCEH1 inhibitor JW480 by oral gavage. Then the mPBMCs were acquired from the mouse blood and subjected to family wide probe treatment to profile the in vivo target engagement.
Following the in vitro study, in vivo target engagement was planned. In this experiment, the inventors orally gavaged the mice with vehicle or inhibitors, then collected the mPBMCs for probe treatment and sADPL measurement. Again, first the activity of NCEH1 was tested in mice PBMCs, and good activity was found. The delta Ct is over 7 cycles, which is over 100 fold change.

[2] = biological target: T2, NCEH1 (Homo sapiens, UniProt Q6PIU2); test: α-Biotin Western blot gel-based profiling of NCEH1 activity (FP-Bio labeling) in SKOV3 cells; type: cell-based; parameters: endogenous NCEH1 activity in SKOV3 cells; endogenous in cells; host or cells: SKOV3; conditions: 1 μM, 4 hr pre-treatment, equivalent NCEH1 protein levels
T2 sequence (Q6PIU2 1-408): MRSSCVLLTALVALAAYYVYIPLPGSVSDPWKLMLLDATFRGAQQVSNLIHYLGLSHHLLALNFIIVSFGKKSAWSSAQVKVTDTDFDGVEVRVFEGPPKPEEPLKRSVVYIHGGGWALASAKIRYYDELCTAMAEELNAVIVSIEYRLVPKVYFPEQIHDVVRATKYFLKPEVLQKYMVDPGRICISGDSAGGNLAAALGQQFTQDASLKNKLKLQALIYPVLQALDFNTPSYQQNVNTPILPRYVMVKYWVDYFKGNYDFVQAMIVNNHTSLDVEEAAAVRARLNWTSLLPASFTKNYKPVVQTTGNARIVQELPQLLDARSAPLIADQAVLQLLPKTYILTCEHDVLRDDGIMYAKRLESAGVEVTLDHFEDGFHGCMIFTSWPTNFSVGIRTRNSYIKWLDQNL
Description: Cells were grown in 6-well plates or 6-cm dishes until reaching 80-90% confluence. FP-biotin (FP-Bio, 10 mM stock in DMSO) was diluted to 2 μM in DMEM, and added to cells at 37° C. for 40 minutes. Cells were then washed in PBS, scraped and lysed by sonication using PBS buffer supplemented with protease inhibitor cocktail (Sigma, #92714-1BTL). Protein concentration was determined by BCA assay (Pierce, #23225), lysate was diluted in Laemmli buffer (4×: 200 mM Tris pH 6.8, 400 mM DTT, 8% SDS, 0.4% bromophenol, 40% glycerol), heated to 95° C. for 5 minutes, and resolved on a 4-12% PAGE gel (ThermoFisher, NP0322BOX). PAGE gels were processed for Western blot as indicated above with IR800-conjugated streptavidin (LI-COR, #926-32230) overnight at 4° C. Images were captured by Odyssey CLx imaging system (LI-COR). Quantification of band intensities was performed using ImageJ software (NIH).

With CC(C)c1ccccc1OC(=O)NCCc1ccc2ccccc2c1 [JW480] the “in vivo target engagement of off-target FAAH in mPBMCs” value [1] was “no target engagements were observed” and the “NCEH1 activity by gel-based profiling (FP-Bio labeling)” value [2] was “significant and selective inhibition of NCEH1 activity; also recorded: specifically inhibits labeling of NCEH1”.

Reference: US12276654B2, “Chemical probe-dependent evaluation of protein activity and uses thereof” (The University of Chicago, priority 2017, dated 2025)
